{
  "source": "patent US20220153746A1",
  "about": "“NITROGEN OXIDE-DONATING PDE-5 AND/OR PDE-6 INHIBITOR COMPOUNDS, AND USES THEREOF” (ILDONG PHARMACEUTICAL CO., LTD., priority 2020, published 2022)",
  "experiment": "TD Phase (Groups 1 and 3): plasma and ocular tissue concentrations and pharmacokinetics of Compound 18 and its metabolite Compound 4 after once daily ocular instillation of Compound 18 nanosuspension for 7 days",
  "format": "in vivo, New Zealand white rabbits",
  "settings": "for Compound 18 Lens Homogenate Conc.: homogenate dilution factor 5; for Cornea homogenate concentration: homogenate dilution factor 15; for concentration at 1 h: Group 1, 1 h",
  "description": "This example illustrates the procedures and results for the levels of Compound 18 and its metabolite Compound 4 in plasma and ocular tissues of normotensive rabbits following ocular instillation of Compound 18 once daily for 7 consecutive days.\nTwenty five (25) male New Zealand white rabbits were divided into 5 groups of varying amounts of animals per group.\nThe Test article, Compound 18 was formulated as a 2% nanosuspension in DI water containing 0.2% PS80 (polyoxyethylenesorbitan, monooleate (Tween 80)) and 0.4% HPMC (hydroxypropylmethylcellulose) at pH 6.77. Referred to herein as “Compound 18 nanosuspension.”\nThe study consisted of three groups (Groups 1-3) of 19 male rabbits (NZW) that underwent once daily morning ocular installation (1 eyedrop) for 7 consecutive days (Day 0-6). Groups 4-5 each consisted of 3 male rabbits (NZW) that were not dosed.\nBlood samples (1 mL) were collected from the jugular vein at the intervals set out below for each group. The samples were then inverted several times following collection and held on wet ice until centrifuged. Samples were centrifuged within 60 minutes of collection under refrigeration (set at 5° C. for 10 minutes at 2000 g.\nGroup 1 (Pilot Study, terminal blood collection): blood was collected from 3 animals at 1 hour post day 7 dose of Compound 18 nanosuspension.\nGroup 3 (TD Phase, terminal blood collection): blood was collected from 3 animals at 0.5 hour, 3 animals at 2 hours, 3 animals at 4 hours, and 3 animals at 8 hours post day 7 dose of Compound 18 nanosuspension.\n(§1) Group 1 (Pilot Study): 3 animals were terminated at 1 hour post Day 7 dose of Compound 18 nanosuspension. Following blood collection and termination, ocular tissues (aqueous humor, vitreous humor, cornea, iris/ciliary body, lens, optic nerve, retina, sclera/choroid, and trabecular meshwork) were collected from each animal and the tissue weights were recorded. Note: sclera and choroid were collected together. Iris and ciliary body were collected together.\nas §1, with “3 (TD Phase):” for “1 (Pilot Study):”, “0.5 hour, 3 animals at 2 hours, 3 animals at 4 hours, and 3 animals at 8 hours” for “1 hour”\nPlasma and tissue samples from treated animals (Groups 1-3) were analyzed for Compound 18 and its metabolite Compound 4 concentrations by LC-MS/MS.\nPharmacokinetic analysis was conducted using WinNonlin Version 6.2.1 (Pharsight, Mountain View, Calif.), operating as a validated software system. Noncompartmental analysis was conducted using the extravascular administration model for ocular instillation dosing.\nThe peak plasma and ocular tissue concentration, time to achieve peak plasma and ocular tissue concentration, half-life, and area under the plasma and ocular tissue concentration-time curve (Cmax, Tmax, T1/2, and AUC) were calculated from the TD phase combined with the pilot study mean animal plasma and ocular tissue concentrations for each sampling time/dose group for Compound 18 and its metabolite Compound 4.\nBA Assay: Quantitation Range 0.05 to 100 ng/mL for Compound 18, 0.15 to 100 ng/mL for Compound 4.\n3. Pipet 50 μL of each type of pre-spiked ocular tissue samples (AH/VH) for QC samples, 50 μL of incurred aqueous humor, and vitreous humor sample (if applicable) into a 96 well plate.\nOcular Tissues Homogenate Preparation: Incurred rabbit ocular tissues were weighed in Genogrinder tubes (plastic tubes with small beads) at the time of removal from the animal and stored frozen (<−70° C.) until analysis. The rabbit incurred ocular tissues were thawed on wet ice. […]",
  "key": {"[1]": {"settings": "TD Phase, Group 3, 4 h, Mean, BQL set to 0"}, "[2]": {"settings": "TD Phase, Group 3, 4 h, individual animals"}, "[3]": {"settings": "TD Phase, Group 3, 4 h, individual animals, BQL set to 0"}, "[4]": {"settings": "TD Phase, Group 3, 4 h, individual animals, homogenate dilution factor 20"}, "[5]": {"settings": "TD Phase, Group 3, 8 h, Mean, BQL set to 0"}, "[6]": {"settings": "TD Phase, Group 3, 8 h, individual animals"}, "[7]": {"settings": "TD Phase, Group 3, 8 h, individual animals, BQL set to 0"}, "[8]": {"settings": "TD Phase, Group 3, 8 h, individual animals, homogenate dilution factor 20"}},
  "note": "Several values for one entry are separate records, joined by “and”; a condition that tells them apart may be missing. Equal values may be shown once. Read-outs that look alike come from different tables or passages of the source.",
  "data": [
    {"smiles": "CCCc1nn(C)c2c(=O)[nH]c(-c3cc(S(=O)(=O)N4CC(CCCO[N+](=O)[O-])C4)ccc3OCC)nc12", "note": "[Compound 18, 3-(1-((4-ethoxy-3-(1-methyl-7-oxo-3-propyl-6,7-dihydro-1H-pyrazolo[4,3-d]pyrimidin-5-yl)phenyl)sulfonyl)azetidin-3-yl)propyl nitrate]", "values": [
      {"measurement": "Compound 18 Trahecular Meshwork Homogenate Conc.", "setting": "TD Phase, Group 3, 2 h, individual animals, homogenate dilution factor 20", "result": "BQL (BQL = Below lower limit of quantitation (0.0500 ng/mL for Compound 18)"},
      {"measurement": "Compound 18 Retina Homogenate Conc.", "setting": "TD Phase, Group 3, 2 h, individual animals, homogenate dilution factor 20 (164 for animal 207671)", "result": "0.192 ng/mL and 3.47 ng/mL and 0.17 ng/mL"},
      {"measurement": "Compound 18 Aqueous Humor Conc.", "setting": "[1]", "result": "BQL (BQL = Below lower limit of quantitation (0.0500 ng/mL for Compound 18)"},
      {"measurement": "Compound 18 Plasma Conc.", "setting": "[1]", "result": "BQL (BQL = Below lower limit of quantitation (0.0500 ng/mL for Compound 18)"},
      {"measurement": "Compound 18 Vitreous Humor Conc.", "setting": "[1]", "result": "BQL (BQL = Below lower limit of quantitation (0.0500 ng/mL for Compound 18)"},
      {"measurement": "Compound 18 Aqueous Humor Conc.", "setting": "[2]", "result": "BQL (BQL = Below lower limit of quantitation (0.0500 ng/mL for Compound 18)"},
      {"measurement": "Compound 18 Plasma Conc.", "setting": "[2]", "result": "BQL (BQL = Below lower limit of quantitation (0.0500 ng/mL for Compound 18)"},
      {"measurement": "Compound 18 Vitreous Humor Conc.", "setting": "[2]", "result": "BQL (BQL = Below lower limit of quantitation (0.0500 ng/mL for Compound 18)"},
      {"measurement": "Final Compound 18 Optic Nerve Conc.", "setting": "[2]", "result": "248 ng/g and 31.4 ng/g and 104 ng/g"},
      {"measurement": "Final Compound 18 Iris/Ciliary Body Conc.", "setting": "[3]", "result": "5.78 ng/g and 0 ng/g and 8.84 ng/g"},
      {"measurement": "Final Compound 18 Lens Conc.", "setting": "[3]", "result": "0 ng/g (2×) and 0.384 ng/g"},
      {"measurement": "Final Compound 18 Retina Conc.", "setting": "[3]", "result": "39.6 ng/g and 6.02 ng/g and 36.2 ng/g"},
      {"measurement": "Compound 18 Lens Homogenate Conc.", "setting": "[2]", "result": "BQL (BQL = Below lower limit of quantitation (0.0500 ng/mL for Compound 18)"},
      {"measurement": "Cornea homogenate concentration", "setting": "[2]", "result": "BQL (BQL = Below lower limit of quantitation (0.0500 ng/mL for Compound 18)"},
      {"measurement": "Compound 18 Iris/Ciliary Body Homogenate Conc.", "setting": "[4]", "result": "BQL (BQL = Below lower limit of quantitation (0.0500 ng/mL for Compound 18) and 0.442 ng/mL"},
      {"measurement": "Compound 18 Optic Nerve Homogenate Conc.", "setting": "[4]", "result": "12.4 ng/mL and 1.57 ng/mL and 5.20 ng/mL"},
      {"measurement": "Compound 18 Retina Homogenate Conc.", "setting": "[4]", "result": "1.98 ng/mL and 0.301 ng/mL and 1.81 ng/mL"},
      {"measurement": "Compound 18 Aqueous Humor Conc.", "setting": "[5]", "result": "BQL (BQL = Below lower limit of quantitation (0.0500 ng/mL for Compound 18)"},
      {"measurement": "Compound 18 Vitreous Humor Conc.", "setting": "[5]", "result": "BQL (BQL = Below lower limit of quantitation (0.0500 ng/mL for Compound 18)"},
      {"measurement": "Compound 18 Aqueous Humor Conc.", "setting": "[6]", "result": "BQL (BQL = Below lower limit of quantitation (0.0500 ng/mL for Compound 18)"},
      {"measurement": "Compound 18 Plasma Conc.", "setting": "[6]", "result": "BQL (BQL = Below lower limit of quantitation (0.0500 ng/mL for Compound 18)"},
      {"measurement": "Compound 18 Vitreous Humor Conc.", "setting": "[6]", "result": "BQL (BQL = Below lower limit of quantitation (0.0500 ng/mL for Compound 18)"},
      {"measurement": "Final Compound 18 Optic Nerve Conc.", "setting": "[6]", "result": "26.2 ng/g and 108 ng/g and 50.6 ng/g"},
      {"measurement": "Final Compound 18 Iris/Ciliary Body Conc.", "setting": "[7]", "result": "2.90 ng/g and 0 ng/g (2×)"},
      {"measurement": "Final Compound 18 Lens Conc.", "setting": "[7]", "result": 0, "unit": "ng/g"},
      {"measurement": "Final Compound 18 Retina Conc.", "setting": "[7]", "result": "8.70 ng/g and 3.64 ng/g and 9.16 ng/g"},
      {"measurement": "Compound 18 Lens Homogenate Conc.", "setting": "[6]", "result": "BQL (BQL = Below lower limit of quantitation (0.0500 ng/mL for Compound 18)"},
      {"measurement": "Cornea homogenate concentration", "setting": "[6]", "result": "BQL (BQL = Below lower limit of quantitation (0.0500 ng/mL for Compound 18)"},
      {"measurement": "Compound 18 Iris/Ciliary Body Homogenate Conc.", "setting": "[8]", "result": "BQL (BQL = Below lower limit of quantitation (0.0500 ng/mL for Compound 18)"},
      {"measurement": "Compound 18 Optic Nerve Homogenate Conc.", "setting": "[8]", "result": "1.31 ng/mL and 5.41 ng/mL and 2.53 ng/mL"},
      {"measurement": "Compound 18 Retina Homogenate Conc.", "setting": "[8]", "result": "0.435 ng/mL and 0.182 ng/mL and 0.458 ng/mL"},
      {"measurement": "Compound 18 Trahecular Meshwork Homogenate Conc.", "setting": "[8]", "result": "BQL (BQL = Below lower limit of quantitation (0.0500 ng/mL for Compound 18)"},
      {"measurement": "tissue of highest concentration", "setting": "TD phase plasma and ocular tissues", "result": "highest in optic nerve and sclera/choroid"},
      {"measurement": "AUC0-8", "setting": "aqueous humor, vitreous humor, plasma, and lens (relatively low exposure)", "result": "0.02-1.2 h*ng/mL or h*ng/g"},
      {"measurement": "AUC0-8", "setting": "cornea, Day 7, from mean concentrations", "result": 209, "unit": "ng·h/g"},
      {"measurement": "AUC0-8", "setting": "iris/ciliary body, Day 7, from mean concentrations", "result": 150, "unit": "ng·h/g"},
      {"measurement": "AUC0-8", "setting": "lens, Day 7, from mean concentrations", "result": 1.19, "unit": "ng·h/g"},
      {"measurement": "concentration at 1 h", "setting": "male, New Zealand white, rabbit, aqueous humor, other: ocular instillation (eye drop), 0.8 mg/kg/day, TD Phase, Mean, BQL set to 0, read-out: Compound 18 Aqueous Humor Conc.", "result": 0.063, "unit": "ng/mL"},
      {"measurement": "concentration at 1 h", "setting": "male, New Zealand white, rabbit, aqueous humor, other: ocular instillation (eye drop), 0.8 mg/kg/day, TD Phase, individual animals, read-out: Compound 18 Aqueous Humor Conc.", "result": 0.189, "unit": "ng/mL"},
      {"measurement": "concentration at 4 h", "setting": "male, New Zealand white, rabbit, iris/ciliary body homogenate, topical, 2 mg/day, TD Phase, Group 3, 4 h, individual animals, homogenate dilution factor 20, read-out: Compound 18 Iris/Ciliary Body Homogenate Conc.", "result": 0.289, "unit": "ng/mL"},
      {"measurement": "concentration at 8 h", "setting": "male, New Zealand white, rabbit, iris/ciliary body homogenate, topical, 2 mg/day, TD Phase, Group 3, 8 h, individual animals, homogenate dilution factor 20, read-out: Compound 18 Iris/Ciliary Body Homogenate Conc.", "result": 0.145, "unit": "ng/mL"},
      {"measurement": "concentration at 1 h", "setting": "male, New Zealand white, rabbit, iris/ciliary body, topical, 0.798 mg/kg/day, TD Phase, Mean, read-out: Final Compound 18 Iris/Ciliary Body Conc.", "result": 107, "unit": "ng/g"},
      {"measurement": "concentration at 0.5 h", "setting": "male, New Zealand white, rabbit, iris/ciliary body, topical, 0.798 mg/kg/day, TD Phase, Group 3, 0.5 h, Mean, read-out: Final Compound 18 Iris/Ciliary Body Conc.", "result": 90.1, "unit": "ng/g"}
    ]}
  ]
}
